Drawing on patent US20260317324A1, “BIFUNCTIONAL COMPOUNDS FOR DEGRADING BRAF VIA UBIQUITIN PROTEOSOME PATHWAY” (Nurix Therapeutics, Inc., priority 2023, published 2026), this text covers DC50 and Dmax for nine compounds.

Format in all cases: cell-based
One assay addresses T1, BRAF V600E (Homo sapiens, UniProt P15056, V600E).
T1 construct: endogenous C-terminal HiBiT fusion tag on BRAF V600E allele; endogenous in cells; host or cells: A375 clone 1F10 (CRISPR-Cas9 knock-in of the HiBiT tag; parental A375 from ATCC)
Nature of the assay: BRAF HiBiT degradation assay, C-terminal HiBiT-tagged BRAF V600E A375 cells (clone 1F10), Nano-Glo HiBiT Lytic assay. As to conditions: for Dmax: A-375. The method in brief:
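Luminescence read-out: Nano-Glo HiBiT lytic reagent with LgBiT, 10 min at room temperature. Signal normalised to DMSO-treated tagged cells, with wildtype A375 as background. Cells are endogenously tagged BRAF V600E A375 clone 1F10. Compounds were tested from 1 μM to 0.01 nM; Dmax is observed % degraded at maximal effect.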
In general terms: The HiBiT peptide binds its large partner to form an active luciferase.

The target of a further assay is T2, BRAF G466V (Homo sapiens, UniProt P15056, G466V).
T2 construct: Horizon Discovery (HCT-116 BRAF−/− cells); host or cells: HCT-116 BRAF−/− cells, clone 8, lentiviral transduction
T2 sequence (P15056 whole entry G466V): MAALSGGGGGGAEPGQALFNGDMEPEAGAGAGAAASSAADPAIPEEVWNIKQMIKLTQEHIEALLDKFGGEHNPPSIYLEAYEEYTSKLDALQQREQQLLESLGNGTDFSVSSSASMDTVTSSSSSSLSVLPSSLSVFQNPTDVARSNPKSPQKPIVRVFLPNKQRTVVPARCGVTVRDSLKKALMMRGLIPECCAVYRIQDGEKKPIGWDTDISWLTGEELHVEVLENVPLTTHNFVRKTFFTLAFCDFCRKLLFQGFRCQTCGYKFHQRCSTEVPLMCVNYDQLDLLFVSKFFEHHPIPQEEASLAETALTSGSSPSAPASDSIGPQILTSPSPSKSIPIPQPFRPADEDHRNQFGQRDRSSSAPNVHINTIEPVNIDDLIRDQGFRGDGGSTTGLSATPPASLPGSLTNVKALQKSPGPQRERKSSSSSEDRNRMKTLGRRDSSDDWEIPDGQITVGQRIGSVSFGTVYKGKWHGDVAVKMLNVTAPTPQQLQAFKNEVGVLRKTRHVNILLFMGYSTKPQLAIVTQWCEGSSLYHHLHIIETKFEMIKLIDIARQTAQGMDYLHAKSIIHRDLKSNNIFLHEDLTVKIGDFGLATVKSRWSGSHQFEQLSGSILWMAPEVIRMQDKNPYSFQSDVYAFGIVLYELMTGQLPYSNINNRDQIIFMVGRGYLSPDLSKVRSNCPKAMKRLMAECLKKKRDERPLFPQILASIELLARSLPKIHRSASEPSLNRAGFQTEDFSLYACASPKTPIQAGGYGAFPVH
Description: BRAF HiBiT degradation assay, C-terminal HiBiT-tagged BRAF G466V overexpressed in HCT-116 BRAF−/− cells (clone 8), Nano-Glo HiBiT Lytic assay. In short, it runs like this: (§1)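 Cells 3,000/well, 24 h at 37 °C; cpds 1 μM–0.01 nM, 11-pt half-log, duplicate, 0.2% DMSO. Readout: HiBiT lytic luminescence, 10 min at RT. Normalized to DMSO-treated tagged cells, with DMSO-treated wild-type HCT-116 as background. DC50 = fitted concentration at Y=50; Obs. Dmax = % degraded at maximal effect.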

The target of the next assay is T3, BRAF G469A (Homo sapiens, UniProt P15056, G469A).
T3 construct: Horizon Discovery (HCT-116 BRAF−/− cells); host or cells: HCT-116 BRAF−/− cells, clone 34, lentiviral transduction
T3 sequence (P15056 whole entry G469A): as the sequence (P15056 whole entry G466V) above, with V466G, G469A counted along it
Nature of the assay: BRAF HiBiT degradation assay, C-terminal HiBiT-tagged BRAF G469A overexpressed in HCT-116 BRAF−/− cells (clone 34), Nano-Glo HiBiT Lytic assay. The method in brief:
as §1

A further assay deals with T4, BRAF D594G (Homo sapiens, UniProt P15056, D594G).
T4 construct: Horizon Discovery (HCT-116 BRAF−/− cells); host or cells: HCT-116 BRAF−/− cells, clone 63, lentiviral transduction
T4 sequence (P15056 whole entry D594G): as the sequence (P15056 whole entry G466V) above, with V466G, D594G counted along it
Description: BRAF HiBiT degradation assay, C-terminal HiBiT-tagged BRAF D594G overexpressed in HCT-116 BRAF−/− cells (clone 63), Nano-Glo HiBiT Lytic assay. In short, it runs like this:
as §1

[1] abbreviates: A375 (BRAF V600E, Class 1), DC50 at 50% degradation.
Setting [2] is: A375 (BRAF V600E, Class 1), observed Dmax, % protein degraded relative to DMSO control.
Where [3] appears, read: BRAF G466V (Class 3), HCT-116 BRAF−/− cells, DC50 at 50% degradation.
Where [4] appears, read: BRAF G466V (Class 3), HCT-116 BRAF−/− cells, observed Dmax relative to DMSO control.
Setting [5] is: BRAF G469A (Class 2), HCT-116 BRAF−/− cells, DC50 at 50% degradation.
[6] abbreviates: BRAF G469A (Class 2), HCT-116 BRAF−/− cells, observed Dmax relative to DMSO control.
Setting [7] is: BRAF D594G (Class 3), HCT-116 BRAF−/− cells, DC50 at 50% degradation.
Setting [8] is: BRAF D594G (Class 3), HCT-116 BRAF−/− cells, observed Dmax relative to DMSO control.
Setting [9] is: A375 (BRAF V600E), DC50 at 50%: fitted conc. at Y=50.
The mark [10] stands for this setting: A375 (BRAF V600E), percentage protein degraded at maximal compound effect relative to DMSO.
[11] abbreviates: BRAF G466V, DC50 at 50%: fitted conc. at Y=50.
[12] abbreviates: HCT-116, BRAF G466V, percentage protein degraded at maximal compound effect relative to DMSO.
The mark [13] stands for this setting: Class 2, BRAF G469A, DC50 at 50%: fitted conc. at Y=50.
Where [14] appears, read: HCT-116, Class 2, BRAF G469A, percentage protein degraded at maximal compound effect relative to DMSO.
The mark [15] stands for this setting: BRAF D594G, DC50 at 50%: fitted conc. at Y=50.
[16] abbreviates: HCT-116, BRAF D594G, percentage protein degraded at maximal compound effect relative to DMSO.

The structures appear in SMILES notation. Bounds are passed on as bounds.

T1 sequence (P15056 whole entry V600E, the tested form may be a part): as the sequence (P15056 whole entry G466V) above, with V466G, V600E counted along it

Turning to `C[C@@H]1CN(c2ccc(-n3cc(-c4cc(Cl)cc(NS(=O)(=O)N5CCCC5)c4F)c(-c4ccncc4)n3)nc2)CCN1CC1CCN(c2ccc([C@H]3CCC(=O)NC3=O)cc2)CC1` [Compound 326, N-[5-chloro-3-(1-{5-[(3R)-4-[(1-{4-[(3R)-2,6-dioxopiperidin-3-yl]phenyl}piperidin-4-yl)methyl]-3-methylpiperazin-1-yl]pyridin-2-yl}-3-(pyridin-4-yl)-1H-pyrazol-4-yl)-2-fluorophenyl]pyrrolidine-1-sulfonamide], the DC50 – broadly, the concentration giving 50% degradation – is less than 10 nM at BRAF V600E (setting [1]), less than 10 nM at BRAF G466V (setting [3]), 10 to 50 nM at BRAF G469A (setting [5]) and less than 10 nM on BRAF D594G (setting [7]). Also, the Dmax (as a rule, the greatest extent of degradation seen) at BRAF V600E (setting [2]) was more than 70%; on BRAF G466V (setting [4]), more than 70%; at BRAF G469A (setting [6]), 30 to 70%; on BRAF D594G (setting [8]), more than 70%.
Regarding `CCCS(=O)(=O)Nc1cccc(-c2nc(C(C)(C)C)sc2-c2ccnc(Nc3cccc(OC4CCN(CC5(C)CCN(c6ccc(C7CCC(=O)NC7=O)cn6)CC5)CC4)c3)n2)c1F` (racemic) [Compound 68, Rac-N-{3-[2-tert-butyl-5-(2-{[3-({1-[(1-{5-[(3R)-2,6-dioxopiperidin-3-yl]pyridin-2-yl}-4-methylpiperidin-4-yl)methyl]piperidin-4-yl}oxy)phenyl]amino}pyrimidin-4-yl)-1,3-thiazol-4-yl]-2-fluorophenyl}propane-1-sulfonamide], the DC50 at BRAF V600E (setting [9]) is 10 to 50 nM; at BRAF G466V (setting [11]), 50 to 500 nM; on BRAF G469A (setting [13]) it was 50 to 500 nM; at BRAF D594G (setting [15]), more than 500 nM. For the same compound, the Dmax on BRAF V600E (setting [10]) was more than 70%; on BRAF G466V (setting [12]), 30 to 70%; at BRAF G469A (setting [14]), 30 to 70%; at BRAF D594G (setting [16]), 30 to 70%.
Regarding `O=C1CCN(c2ccc(N3CCC(CN4CCN(c5ccc(-n6cc(-c7cc(Cl)cc(NS(=O)(=O)N8CC[C@@H](F)C8)c7F)c(-c7ccncc7)n6)cc5)CC4)CC3)nc2)C(=O)N1` [Compound 263, (R)—N-(5-chloro-3-(1-(4-(4-((1-(5-(2,4-dioxotetrahydropyrimidin-1(2H)-yl)pyridin-2-yl)piperidin-4-yl)methyl)piperazin-1-yl)phenyl)-3-(pyridin-4-yl)-1H-pyrazol-4-yl)-2-fluorophenyl)-3-fluoropyrrolidine-1-sulfonamide], the DC50 at BRAF V600E (setting [1]), on BRAF G466V (setting [3]), at BRAF G469A (setting [5]) and at BRAF D594G (setting [7]) was less than 10 nM throughout. Moreover, the Dmax on BRAF V600E (setting [2]) is more than 70%; at BRAF G466V (setting [4]) it was more than 70%; on BRAF G469A (setting [6]), 30 to 70%; on BRAF D594G (setting [8]), 30 to 70%.
On to `CCCS(=O)(=O)Nc1cccc(-c2nc(C3CCC4(CC3)CN(C(=O)CC3CCN(C5CCN(c6ccc7c(c6)C(=O)N(C6CCC(=O)NC6=O)C7=O)CC5)CC3)C4)sc2-c2ccnc(N)n2)c1F` (racemic) [Compound 247, Rac-N-{3-[5-(2-aminopyrimidin-4-yl)-2-{2-[2-(1′-{2-[(3R)-2,6-dioxopiperidin-3-yl]-1,3-dioxo-2,3-dihydro-1H-isoindol-5-yl}-[1,4′-bipiperidin]-4-yl)acetyl]-2-azaspiro[3.5]nonan-7-yl}-1,3-thiazol-4-yl]-2-fluorophenyl}propane-1-sulfonamide], for which the DC50 on BRAF V600E (setting [1]) was 10 to 50 nM; on BRAF G466V (setting [3]) it was more than 500 nM; at BRAF G469A (setting [5]) it was more than 500 nM; on BRAF D594G (setting [7]), more than 500 nM. Moreover, the Dmax was more than 70% at BRAF V600E (setting [2]), 30 to 70% on BRAF G466V (setting [4]), less than 30% on BRAF G469A (setting [6]) and 30 to 70% on BRAF D594G (setting [8]).
With `CCCS(=O)(=O)Nc1cccc(-c2nc(C3CCC4(CC3)CCN(C(=O)C3CCN(c5ccc6c(c5)C(=O)N(C5CCC(=O)NC5=O)C6=O)CC3)CC4)sc2-c2ccnc(N)n2)c1F` (racemic) [Compound 245, Rac-N-{3-[5-(2-aminopyrimidin-4-yl)-2-[3-(1-{2-[(3R)-2,6-dioxopiperidin-3-yl]-1,3-dioxo-2,3-dihydro-1H-isoindol-5-yl}piperidine-4-carbonyl)-3-azaspiro[5.5]undecan-9-yl]-1,3-thiazol-4-yl]-2-fluorophenyl}propane-1-sulfonamide], the DC50 is less than 10 nM on BRAF V600E (setting [9]), more than 500 nM on BRAF G466V (setting [11]), more than 500 nM at BRAF G469A (setting [13]) and less than 10 nM at BRAF D594G (setting [15]). The Dmax on BRAF V600E (setting [10]) is more than 70%; on BRAF G466V (setting [12]) it was 30 to 70%; on BRAF G469A (setting [14]) it was 30 to 70%; at BRAF D594G (setting [16]) it was 30 to 70%.
As for `CCN(C)S(=O)(=O)Nc1cc(F)cc(-c2cn(-c3ccc(N4CCN(CC5CCN(c6ccc([C@H]7CCC(=O)NC7=O)cn6)CC5)CC4)cc3)nc2-c2ccncc2)c1F` [Compound 375, (3R)-3-(6-{4-[(4-{4-[4-(3-{[ethyl(methyl)sulfamoyl]amino}-2,5-difluorophenyl)-3-(pyridin-4-yl)-1H-pyrazol-1-yl]phenyl}piperazin-1-yl)methyl]piperidin-1-yl}pyridin-3-yl)piperidine-2,6-dione], the DC50 was less than 10 nM on BRAF V600E (setting [1]), less than 10 nM at BRAF G466V (setting [3]), 10 to 50 nM at BRAF G469A (setting [5]) and less than 10 nM at BRAF D594G (setting [7]). Besides, the Dmax at BRAF V600E (setting [2]), on BRAF G466V (setting [4]), on BRAF G469A (setting [6]) and at BRAF D594G (setting [8]) was more than 70% each time.
Turning to `CCCS(=O)(=O)Nc1cccc(-c2nc(C(C)(C)C)sc2-c2ccnc(Nc3ccc4c(c3)CCN(CC3CCN(c5ccc6c(=O)n(C7CCC(=O)NC7=O)ccc6c5)CC3)C4)n2)c1F` (racemic) [Compound 85, Rac-N-(3-{2-tert-butyl-5-[2-({2-[(1-{2-[(3R)-2,6-dioxopiperidin-3-yl]-1-oxo-1,2-dihydroisoquinolin-6-yl}piperidin-4-yl)methyl]-1,2,3,4-tetrahydroisoquinolin-6-yl}amino)pyrimidin-4-yl]-1,3-thiazol-4-yl}-2-fluorophenyl)propane-1-sulfonamide], the DC50 on BRAF V600E (setting [9]) was 10 to 50 nM; on BRAF G466V (setting [11]), more than 500 nM; on BRAF G469A (setting [13]), more than 500 nM; on BRAF D594G (setting [15]) it was more than 500 nM. In addition, the greatest degradation seen (Dmax) on BRAF V600E (setting [10]) is 30 to 70%; on BRAF G466V (setting [12]) it was 30 to 70%; on BRAF G469A (setting [14]), less than 30%; on BRAF D594G (setting [16]), 30 to 70%.
With `O=C1CCC(c2ccc(N3CCC(CN4CCN(c5ccc(-n6cc(-c7cc(Cl)cc(NS(=O)(=O)N8CC[C@@H](F)C8)c7F)c(-c7ccncc7)n6)cc5F)CC4)CC3)nc2)C(=O)N1` (mixture of isomers) [Compound 366, (3R)—N-{5-chloro-3-[1-(4-{4-[(1-{5-[(3RS)-2,6-dioxopiperidin-3-yl]pyridin-2-yl}piperidin-4-yl)methyl]piperazin-1-yl}-3-fluorophenyl)-3-(pyridin-4-yl)-1H-pyrazol-4-yl]-2-fluorophenyl}-3-fluoropyrrolidine-1-sulfonamide], the DC50 on BRAF V600E (setting [1]), on BRAF G466V (setting [3]), at BRAF G469A (setting [5]) and at BRAF D594G (setting [7]) was less than 10 nM each time. For the same compound, the Dmax on BRAF V600E (setting [2]), at BRAF G466V (setting [4]), on BRAF G469A (setting [6]) and on BRAF D594G (setting [8]) was more than 70% each time.
With `O=C1CCC(c2ccc(N3CCC(CN4CCN(c5ccc(-n6cc(-c7cc(F)cc(NS(=O)(=O)N8CCCC8)c7F)c(-c7ccncc7)n6)cc5)CC4)CC3)nc2)C(=O)N1` (racemic) [Compound 267, Rac-(R)—N-(3-(1-(4-(4-((1-(5-(2,6-dioxopiperidin-3-yl)pyridin-2-yl)piperidin-4-yl)methyl)piperazin-1-yl)phenyl)-3-(pyridin-4-yl)-1H-pyrazol-4-yl)-2,5-difluorophenyl)pyrrolidine-1-sulfonamide], the DC50 is less than 10 nM on BRAF V600E (setting [1]), less than 10 nM at BRAF G466V (setting [3]), 10 to 50 nM at BRAF G469A (setting [5]) and less than 10 nM on BRAF D594G (setting [7]). The Dmax at BRAF V600E (setting [2]), at BRAF G466V (setting [4]), on BRAF G469A (setting [6]) and on BRAF D594G (setting [8]) was more than 70% in each case.
